These results are taken from patent US20200231638A1, “STABILIZED ANTI-MICROBIAL PEPTIDES” (priority 2015, published 2020).

Each structure is given as a SMILES string. Bridge positions count the residues as written; N and C are the ends. Square brackets hold non-standard residues; d marks the D form. Peptide text beside a SMILES is read from it. R8 = C=CCCCCCC[C@@](C)(N)C(=O)O; S5 = C=CCCC[C@](C)(N)C(=O)O; Nle = CCCC[C@H](N)C(=O)O

The test system of one data set is P. aeruginosa. Format: cell-based, Pseudomonas aeruginosa. Put shortly: (§1)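 Read-out is visible growth: the MIC is the lowest peptide concentration showing none after 20-24 hours at 37° C. Bacteria in refined (anion-exchanged) Mueller-Hinton broth were seeded at a final 5×10^5 CFU/ml onto water-based peptide serial dilutions.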
In the next data set the test system is S. aureus. The class given is cell-based, Staphylococcus aureus. Put shortly:
as §1

The next data set has as its system human red blood cells. Format: cell-based. As to conditions: red cells of human, 1 h, 25. Put shortly:
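Washed human RBCs as 1% (v/v) suspension in phosphate-buffered saline incubated 1 h at 37° C with serially diluted peptides. Hemoglobin release in supernatant measured spectrophotometrically (570 nm), % hemolysis relative to untreated and 1% Triton-X100 controls; MHC defined as concentration giving less than 1% release.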

Another data set deals with E. coli. Format: cell-based, Escherichia coli. Put shortly: as §1
In another data set the test system is B. cereus. The class given is cell-based, Bacillus cereus. Put shortly:
as §1

Take `CCCC[C@H](NC(=O)[C@@H](NC(=O)[C@H](CCC(=O)O)NC(=O)CNC(=O)[C@]1(C)CCCC=CCCCCCC[C@@](C)(NC(=O)[C@H](C)NC(=O)[C@H](CO)NC(=O)[C@H](Cc2c[nH]cn2)NC(=O)[C@H](CC(C)C)NC(=O)[C@H](Cc2ccccc2)NC(=O)[C@H](CCCCN)NC(=O)CNC(=O)[C@@H](NC(=O)CN)[C@@H](C)CC)C(=O)N[C@@H](CCCCN)C(=O)N[C@@H](Cc2ccccc2)C(=O)NCC(=O)N[C@@H](CCCCN)C(=O)N[C@@H](C)C(=O)N[C@@H](Cc2ccccc2)C(=O)N1)[C@@H](C)CC)C(=O)N[C@@H](CC(N)=O)C(=O)N[C@@H](CO)C(N)=O` [Mag(i + 7)9] (H-GIGKFLHSA[R8]KFGKAF[S5]GEI[Nle]NS-NH2; staple 10-17 (inferred); N-terminus and C-terminus assumed): in the data set with P. aeruginosa, the “MIC P. aeruginosa” value stood at 3.1 µg/mL. Moreover, the “MIC S. aureus” value against S. aureus came to 3.1 µg/mL. The “% Hemolysis at 25 μg/ml” value with human red blood cells stood at 94.6%. Moreover, the “MIC E. coli” value in the data set with E. coli turned out to be 3.1 µg/mL. In the data set on B. cereus, the “MIC B. cereus” value was determined as 3.1 µg/mL.

`CCCC[C@H](NC(=O)[C@]1(C)CCCC=CCCC[C@](C)(NC(=O)[C@H](C)NC(=O)[C@H](CCCCN)NC(=O)CNC(=O)[C@H](Cc2ccccc2)NC(=O)[C@H](CCCCN)NC(=O)[C@H](CCCCN)NC(=O)[C@H](C)NC(=O)[C@H](CO)NC(=O)[C@H](Cc2c[nH]cn2)NC(=O)[C@H](CC(C)C)NC(=O)[C@H](Cc2ccccc2)NC(=O)[C@H](CCCCN)NC(=O)CNC(=O)[C@@H](NC(=O)CN)[C@@H](C)CC)C(=O)N[C@@H](C(C)C)C(=O)NCC(=O)N[C@@H](CCC(=O)O)C(=O)N1)C(=O)N[C@@H](CCC(=O)O)C(=O)N[C@@H](CO)C(N)=O` [Mag(i + 4)15(N22E), GIGKFLHSAKKFGKAXVGEXBES] (H-GIGKFLHSAKKFGKA[S5]VGE[S5][Nle]ES-NH2; staple 16-20): the “MIC P. aeruginosa” value in the data set with P. aeruginosa was 12.5 µg/mL. For the same compound, in the data set on S. aureus, the “MIC S. aureus” value came out at 25 µg/mL. In the data set with human red blood cells, the “% Hemolysis at 25 μg/ml” value is 3.4%. Also, the “MIC E. coli” value in the data set with E. coli stood at 3.1 µg/mL. For the same compound, the “MIC B. cereus” value against B. cereus turned out to be 12.5 µg/mL.

In the case of `CCCC[C@H](NC(=O)[C@@H](NC(=O)[C@H](CCC(=O)O)NC(=O)CNC(=O)[C@@H](NC(=O)[C@H](Cc1ccccc1)NC(=O)[C@H](C)NC(=O)[C@H](CCCCN)NC(=O)[C@]1(C)CCCC=CCCCCCC[C@@](C)(NC(=O)[C@H](Cc2ccccc2)NC(=O)[C@H](CCCCN)NC(=O)CNC(=O)[C@@H](NC(=O)CN)[C@@H](C)CC)C(=O)N[C@@H](Cc2c[nH]cn2)C(=O)N[C@@H](CO)C(=O)N[C@@H](C)C(=O)N[C@@H](CCCCN)C(=O)N[C@@H](CCCCN)C(=O)N[C@@H](Cc2ccccc2)C(=O)N1)C(C)C)[C@@H](C)CC)C(=O)N[C@@H](CC(N)=O)C(=O)N[C@@H](CO)C(N)=O` [Mag(i + 7)5] (H-GIGKF[R8]HSAKKF[S5]KAFVGEI[Nle]NS-NH2; staple 6-13 (inferred); N-terminus and C-terminus assumed), the “MIC P. aeruginosa” value with P. aeruginosa is 3.1 µg/mL. In addition, in the data set with S. aureus, the “MIC S. aureus” value was 6.2 µg/mL. In addition, the “% Hemolysis at 25 μg/ml” value in the data set on human red blood cells turned out to be 87.0%. Further, the “MIC E. coli” value with E. coli was 3.1 µg/mL. In addition, the “MIC B. cereus” value against B. cereus stood at 3.1 µg/mL.

In the case of `CCCC[C@H](NC(=O)[C@]1(C)CCCC=CCCC[C@](C)(NC(=O)[C@H](C)NC(=O)[C@H](CCCCN)NC(=O)CNC(=O)[C@H](Cc2ccccc2)NC(=O)[C@H](CCCCN)NC(=O)[C@H](CCCCN)NC(=O)[C@H](C)NC(=O)[C@H](CO)NC(=O)[C@H](CCCCN)NC(=O)[C@H](CC(C)C)NC(=O)[C@H](Cc2ccccc2)NC(=O)[C@H](CCCCN)NC(=O)CNC(=O)[C@@H](NC(=O)CN)[C@@H](C)CC)C(=O)N[C@@H](C(C)C)C(=O)NCC(=O)N[C@@H](CCC(=O)O)C(=O)N1)C(=O)N[C@@H](CC(N)=O)C(=O)N[C@@H](CO)C(N)=O` [Mag(i + 4)15(H7K), GIGKFLKSAKKFGKAXVGEXBNS] (H-GIGKFLKSAKKFGKA[S5]VGE[S5][Nle]NS-NH2; staple 16-20; N-terminus and C-terminus assumed), in the data set on P. aeruginosa, the “MIC P. aeruginosa” value was 3.1 µg/mL. The “MIC S. aureus” value in the data set on S. aureus was determined as 6.2 µg/mL. Besides, the “% Hemolysis at 25 μg/ml” value with human red blood cells is given as 3.1%. For the same compound, in the data set with E. coli, the “MIC E. coli” value came out at 1.6 µg/mL. In the data set with B. cereus, the “MIC B. cereus” value worked out at 3.1 µg/mL.

Regarding `CC(C)C[C@H](NC(=O)[C@H](Cc1ccc(O)cc1)NC(=O)[C@H](Cc1c[nH]cn1)NC(=O)[C@@H](NC(=O)[C@H](CC(C)C)NC(=O)[C@]1(C)CCCC=CCCC[C@](C)(NC(=O)[C@H](Cc2c[nH]cn2)NC(=O)[C@H](CCCCN)NC(=O)CNC(=O)[C@@H](NC(=O)[C@H](Cc2c[nH]cn2)NC(=O)[C@H](C)NC(=O)[C@H](C)NC(=O)[C@H](CCCCN)NC(=O)[C@H](CCCCN)NC(=O)[C@]2(C)CCCC=CCCC[C@](C)(NC(=O)CN)C(=O)NCC(=O)N[C@@H](CO)C(=O)N[C@@H](Cc3ccccc3)C(=O)N2)C(C)C)C(=O)NCC(=O)N[C@@H](CCCCN)C(=O)N[C@@H](C)C(=O)N1)[C@@H](C)O)C(N)=O` [Pleu(i + 4)1, 15] (H-G[S5]GSF[S5]KKAAHVGKH[S5]GKA[S5]LTHYL-NH2; staple 2-6, 16-20; N-terminus assumed), in the data set with P. aeruginosa, the “MIC P. aeruginosa” value was 1.6 µg/mL. The “MIC S. aureus” value in the data set with S. aureus came out at 1.6 µg/mL. Further, the “% Hemolysis at 25 μg/ml” value with human red blood cells turned out to be 88.2%. For the same compound, the “MIC E. coli” value in the data set with E. coli was 1.6 µg/mL. The “MIC B. cereus” value in the data set with B. cereus stood at 3.1 µg/mL.

For the compound `CCCC[C@H](NC(=O)[C@@H](NC(=O)[C@]1(C)CCCC=CCCCCCC[C@@](C)(NC(=O)[C@H](CCCCN)NC(=O)[C@H](CCCCN)NC(=O)[C@H](C)NC(=O)[C@H](CO)NC(=O)[C@H](Cc2c[nH]cn2)NC(=O)[C@H](CC(C)C)NC(=O)[C@H](Cc2ccccc2)NC(=O)[C@H](CCCCN)NC(=O)CNC(=O)[C@@H](NC(=O)CN)[C@@H](C)CC)C(=O)NCC(=O)N[C@@H](CCCCN)C(=O)N[C@@H](C)C(=O)N[C@@H](Cc2ccccc2)C(=O)N[C@@H](C(C)C)C(=O)NCC(=O)N1)[C@@H](C)CC)C(=O)N[C@@H](CC(N)=O)C(=O)N[C@@H](CO)C(N)=O` [Mag(i + 7)11] (H-GIGKFLHSAKK[R8]GKAFVG[S5]I[Nle]NS-NH2; staple 12-19 (inferred); N-terminus and C-terminus assumed), in the data set on P. aeruginosa, the “MIC P. aeruginosa” value was determined as 1.6 µg/mL. In the data set with S. aureus, the “MIC S. aureus” value worked out at 3.1 µg/mL. Besides, the “% Hemolysis at 25 μg/ml” value in the data set on human red blood cells was 84.8%. In addition, the “MIC E. coli” value in the data set on E. coli came out at 1.6 µg/mL. The “MIC B. cereus” value in the data set on B. cereus was found to be 3.1 µg/mL.

Take `CCCC[C@H](NC(=O)[C@]1(C)CCCC=CCCC[C@](C)(NC(=O)[C@H](C)NC(=O)[C@H](CCCCN)NC(=O)CNC(=O)[C@H](Cc2ccccc2)NC(=O)[C@H](CCCCN)NC(=O)[C@H](CCCCN)NC(=O)[C@H](CCCCN)NC(=O)[C@H](Cc2c[nH]cn2)NC(=O)[C@H](Cc2c[nH]cn2)NC(=O)[C@]2(C)CCCC=CCCC[C@](C)(NC(=O)CN)C(=O)NCC(=O)N[C@@H](CCCCN)C(=O)N[C@@H](Cc3ccccc3)C(=O)N2)C(=O)N[C@@H](C(C)C)C(=O)N[C@@H](Cc2c[nH]cn2)C(=O)N[C@@H](CCC(=O)O)C(=O)N1)C(=O)N[C@@H](CCC(=O)O)C(=O)N[C@@H](CO)C(N)=O` [Mag(i + 4)1, 15(S8H, A9K, G18H, N21E)] (H-G[S5]GKF[S5]HHKKKFGKA[S5]VHE[S5][Nle]ES-NH2; staple 2-6, 16-20; N-terminus assumed): in the data set with P. aeruginosa, the “MIC P. aeruginosa” value was 12.5 µg/mL. Also, the “MIC S. aureus” value against S. aureus was more than 50 µg/mL. Also, in the data set with human red blood cells, the “% Hemolysis at 25 μg/ml” value worked out at 4.2%. For the same compound, the “MIC E. coli” value against E. coli amounted to 3.1 µg/mL. In the data set with B. cereus, the “MIC B. cereus” value is 50 µg/mL.

For the compound `CCCC[C@H](NC(=O)[C@]1(C)CCCC=CCCC[C@](C)(NC(=O)[C@H](C)NC(=O)[C@H](CCCCN)NC(=O)CNC(=O)[C@H](Cc2ccccc2)NC(=O)[C@H](CCCCN)NC(=O)[C@H](CCCCN)NC(=O)[C@H](C)NC(=O)[C@H](CO)NC(=O)[C@H](Cc2c[nH]cn2)NC(=O)[C@H](CC(C)C)NC(=O)[C@H](Cc2ccccc2)NC(=O)[C@H](CCCCN)NC(=O)[C@H](CCC(=O)O)NC(=O)[C@@H](NC(=O)CN)[C@@H](C)CC)C(=O)N[C@@H](C(C)C)C(=O)NCC(=O)N[C@@H](CCC(=O)O)C(=O)N1)C(=O)N[C@@H](CC(N)=O)C(=O)N[C@@H](CO)C(N)=O` [Mag(i + 4)15(G3E), GIEKFLHSAKKFGKAXVGEXBNS] (H-GIEKFLHSAKKFGKA[S5]VGE[S5][Nle]NS-NH2; staple 16-20), in the data set on P. aeruginosa, the “MIC P. aeruginosa” value is 12.5 µg/mL. In addition, the “MIC S. aureus” value against S. aureus was 50 µg/mL. The “% Hemolysis at 25 μg/ml” value in the data set on human red blood cells is 3.9%. The “MIC E. coli” value in the data set with E. coli came out at 3.1 µg/mL. Besides, the “MIC B. cereus” value in the data set on B. cereus worked out at 12.5 µg/mL.

For the compound `CCCC[C@H](NC(=O)[C@@H](NC(=O)[C@H](CCC(=O)O)NC(=O)[C@]1(C)CCCC=CCCC[C@](C)(NC(=O)CNC(=O)[C@H](Cc2ccccc2)NC(=O)[C@H](CCCCN)NC(=O)[C@H](CCCCN)NC(=O)[C@H](C)NC(=O)[C@H](CO)NC(=O)[C@H](Cc2c[nH]cn2)NC(=O)[C@H](CC(C)C)NC(=O)[C@H](Cc2ccccc2)NC(=O)[C@H](CCCCN)NC(=O)CNC(=O)[C@@H](NC(=O)CN)[C@@H](C)CC)C(=O)N[C@@H](C)C(=O)N[C@@H](Cc2ccccc2)C(=O)N[C@@H](C(C)C)C(=O)N1)[C@@H](C)CC)C(=O)N[C@@H](CC(N)=O)C(=O)N[C@@H](CO)C(N)=O` [Mag(i + 4)13] (H-GIGKFLHSAKKFG[S5]AFV[S5]EI[Nle]NS-NH2; staple 14-18), the “MIC P. aeruginosa” value against P. aeruginosa turned out to be 6.2 µg/mL. Further, the “MIC S. aureus” value against S. aureus is 6.2 µg/mL. The “% Hemolysis at 25 μg/ml” value in the data set with human red blood cells is recorded as 59.7%. The “MIC E. coli” value against E. coli came to 3.1 µg/mL. The “MIC B. cereus” value against B. cereus came out at 3.1 µg/mL.
